Measurements published in patent US20250275953A1, “VODOBATINIB FOR REDUCING PROGRESSION OF PARKINSON'S DISEASE” (Sun Pharma Advanced Research Company Ltd., priority 2022, published 2025).
Read-outs that look alike come from different tables or passages of the source.

Experiment: Plasma pharmacokinetics, 7 once-daily oral doses, healthy volunteers
Type: in vivo, human
Conditions: for Cmax / Tmax / AUC(0-t): male, human, plasma, oral
Experimental: After 28 days of screening, the subjects were studied in sequential cohorts of 6 subjects each. The study was conducted for 17 days. […] After the dose, subjects continued to fast for additional 4 hours, water was allowed ad libitum with the exception of 1 hour prior and 1-hour post dose.
The plasma and CSF samples were analyzed, by validated LC/MS-MS methods. PK analysis was conducted based on PK/PP Population: Cmax, AUC0-t, AUC0-24, AUC0-∞, Tmax, Cavg, CL/F, Cmin, t1/2, Kel, Vd (V/F; Vd/F), and Vss/F. Model-independent plasma PK parameters (Cmax, Tmax, t1/2, AUC0-t, AUC0-24, AUC0-∞, Cavg, CL/F, Vss/F, Vd/F), after the first dose (Day 1) and last dose (Day 7), Cmin on Days 2-7) was listed by subject and summarized by study cohort. In addition to the descriptive statistics listed above, geometric means was reported for the pivotal PK endpoints (CL/F, Vss/F, Vd/F, Cmin, Cavg, AUC0-t, AUC0-24, AUC0-∞, and Cmax). For CSF, PK parameters (Cmax, Tmax, t1/2, AUC0-t, AUC0-24, Cmin, Cavg, CL/F, Vss/F) was listed by subject and summarized by cohort. Ratios of CSF: plasma concentration at each time point was listed by subject and summarized by study cohort.
Forty-one healthy adult male volunteers aged 18 to 45 with body mass indexes (BMI)≥18 to ≤30 Kg/m^2 and total body weight >50 kg (110 lb) were screened in order to enroll 19 subjects with an average age of 34.2 years (range 21.5-45.6 years) into this study Six participants were randomly assigned to the 48 and 192 mg cohorts, and seven participants were assigned to the 384 mg cohort. After an overnight fast, participants received once daily doses of vodobatinib as capsules for 7 days. Serial PK blood samples to measure vodobatinib plasma concentrations were collected at pre-dose and at 0.25, 0.5, 1, 1.5, 2, 2.5, 3, 4, 6, 8, 12, 16 and 24 h post-dose after the first dose on Day 1 and the last dose on day 7. Additional PK samples prior to the morning doses were taken on Days 3-6. On the morning of Day 7, prior to dosing, an indwelling intrathecal catheter was inserted in the lumbar region (L3-L5). Serial CSF samples were collected through the catheter connected via peristaltic pump to a fraction collector. At each designated CSF collection time point, 8 mL of CSF was collected at a flow rate of 0.5 mL/min over a 16-min period at pre-dose, and 0.5, 1.0, 1.5, 2, 2.5, 3, 4, 6, 8, 12 and 24 h post-dose. The first 2 mL of CSF was discarded, and the remaining 6 mL was used for the vodobatinib assay. The occurrence of treatment-emergent adverse events (TEAEs) and serious AEs (SAEs) reported through the completion of study were collected.

[1] = 48 mg, Day 7, plasma, healthy volunteers
[2] = 192 mg, Day 1, plasma, healthy volunteers
[3] = 192 mg, Day 7, plasma, healthy volunteers
[4] = 384 mg, Day 1, plasma, healthy volunteers
[5] = 384 mg, Day 7, plasma, healthy volunteers

Cc1ccc(C(=O)NNC(=O)c2c(C)cccc2Cl)cc1C#Cc1cnc2ccccc2c1 [N′-(2-chloro-6-methylbenzoyl)-4-methyl-3-[2-(3-quinolyl)ethynyl]-benzohydrazide]
AUC0-24 GM (48 mg, Day 1, plasma, healthy volunteers): 8691.6 ng·h/mL
AUC0-24 GM [1]: 10346.9 ng·h/mL
Cmax GM [1]: 1241.4 ng/mL
AUC0-24 GM [2]: 33425.8 ng·h/mL
Cmax GM [2]: 3550.7 ng/mL
AUC0-24 GM [3]: 39138.2 ng·h/mL
Cmax GM [3]: 5020.9 ng/mL
AUC0-24 GM [4]: 35536.5 ng·h/mL
Cmax GM [4]: 5387.1 ng/mL
AUC0-24 GM [5]: 42124.5 ng·h/mL
Cmax GM [5]: 6648.7 ng/mL
time within which peak plasma concentrations (Cmax) achieved (Day 1, across 48-384 mg cohorts): 2.8 to 4.0 h
Cmax (48 mg, Day 1, plasma, Healthy Subjects, Table 10, read-out: Cmax Mean): 1380 ng/mL
Tmax (48 mg, Day 1, plasma, Healthy Subjects, Table 10, read-out: Tmax median): 2.8 h
AUC(0-t) (48 mg, Day 1, plasma, Healthy Subjects, read-out: AUC0-24 Mean): 8870 ng·h/mL
AUC(0-t) (48 mg, Day 1, plasma, healthy volunteers, read-out: AUC0-24 AM): 8870 ng·h/mL
AUC(0-t) (48 mg, Day 1, plasma, healthy volunteers, read-out: AUC0-24 GM): 8690 ng·h/mL
AUC(0-t) (48 mg, Day 1, plasma, healthy volunteers, read-out: AUC0-24 Median): 8880 ng·h/mL
AUC(0-t) (48 mg, Day 1, plasma, healthy volunteers, read-out: AUC0-24 Min, Max): 5850 to 10800 ng·h/mL
Cmax (48 mg, Day 1, plasma, healthy volunteers, read-out: Cmax AM): 1380 ng/mL
Cmax (48 mg, Day 1, plasma, healthy volunteers, read-out: Cmax GM): 1330 ng/mL
Cmax (48 mg, Day 1, plasma, healthy volunteers, read-out: Cmax Median): 1220 ng/mL
Cmax (48 mg, Day 1, plasma, healthy volunteers, read-out: Cmax Min, Max): 1010 to 2000 ng/mL
Tmax (48 mg, Day 1, plasma, healthy volunteers, read-out: Tmax Median): 2.8 h
Tmax (48 mg, Day 1, plasma, healthy volunteers, read-out: Tmax Min, Max): 1.5 to 4 h
Cmax (48 mg, Day 7, plasma, Healthy Subjects, Table 10, read-out: Cmax Mean): 1400 ng/mL
Tmax (48 mg, Day 7, plasma, Healthy Subjects, Table 10, read-out: Tmax median (range)): 4 h
AUC(0-t) (48 mg, Day 7, plasma, Healthy Subjects, read-out: AUC0-24 Mean): 12900 ng·h/mL
AUC(0-t) (48 mg, Day 7, plasma, healthy volunteers, read-out: AUC0-24 AM): 12900 ng·h/mL
AUC(0-t) (48 mg, Day 7, plasma, healthy volunteers, read-out: AUC0-24 GM): 10300 ng·h/mL
AUC(0-t) (48 mg, Day 7, plasma, healthy volunteers, read-out: AUC0-24 Median): 11000 ng·h/mL
AUC(0-t) (48 mg, Day 7, plasma, healthy volunteers, read-out: AUC0-24 Min, Max): 2970 to 29000 ng·h/mL
Cmax (48 mg, Day 7, plasma, healthy volunteers, read-out: Cmax AM): 1400 ng/mL
Cmax (48 mg, Day 7, plasma, healthy volunteers, read-out: Cmax GM): 1240 ng/mL
Cmax (48 mg, Day 7, plasma, healthy volunteers, read-out: Cmax Median): 1340 ng/mL
Cmax (48 mg, Day 7, plasma, healthy volunteers, read-out: Cmax Min, Max): 421 to 2380 ng/mL
Tmax (48 mg, Day 7, plasma, healthy volunteers, read-out: Tmax Median): 4 h
Tmax (48 mg, Day 7, plasma, healthy volunteers, read-out: Tmax Min, Max): 1.5 to 12 h
Cmax (192 mg, Day 1, plasma, Healthy Subjects, Table 10, read-out: Cmax Mean): 3780 ng/mL
Tmax (192 mg, Day 1, plasma, Healthy Subjects, Table 10, read-out: Tmax median): 3.5 h
AUC(0-t) (192 mg, Day 1, plasma, Healthy Subjects, read-out: AUC0-24 Mean): 34500 ng·h/mL
AUC(0-t) (192 mg, Day 1, plasma, healthy volunteers, read-out: AUC0-24 AM): 34500 ng·h/mL
AUC(0-t) (192 mg, Day 1, plasma, healthy volunteers, read-out: AUC0-24 GM): 33400 ng·h/mL
AUC(0-t) (192 mg, Day 1, plasma, healthy volunteers, read-out: AUC0-24 Median): 34700 ng·h/mL
AUC(0-t) (192 mg, Day 1, plasma, healthy volunteers, read-out: AUC0-24 Min, Max): 22400 to 45600 ng·h/mL
Cmax (192 mg, Day 1, plasma, healthy volunteers, read-out: Cmax AM): 3780 ng/mL
Cmax (192 mg, Day 1, plasma, healthy volunteers, read-out: Cmax GM): 3550 ng/mL
Cmax (192 mg, Day 1, plasma, healthy volunteers, read-out: Cmax Median): 3180 ng/mL
Cmax (192 mg, Day 1, plasma, healthy volunteers, read-out: Cmax Min, Max): 2740 to 7190 ng/mL
Tmax (192 mg, Day 1, plasma, healthy volunteers, read-out: Tmax Median): 3.5 h
Tmax (192 mg, Day 1, plasma, healthy volunteers, read-out: Tmax Min, Max): 1.62 to 4 h
Cmax (192 mg, Day 7, plasma, Healthy Subjects, Table 10, read-out: Cmax Mean): 5380 ng/mL
Tmax (192 mg, Day 7, plasma, Healthy Subjects, Table 10, read-out: Tmax median (range)): 4 h
AUC(0-t) (192 mg, Day 7, plasma, Healthy Subjects, read-out: AUC0-24 Mean): 44100 ng·h/mL
AUC(0-t) (192 mg, Day 7, plasma, healthy volunteers, read-out: AUC0-24 AM): 44100 ng·h/mL
AUC(0-t) (192 mg, Day 7, plasma, healthy volunteers, read-out: AUC0-24 GM): 39100 ng·h/mL
AUC(0-t) (192 mg, Day 7, plasma, healthy volunteers, read-out: AUC0-24 Median): 40100 ng·h/mL
AUC(0-t) (192 mg, Day 7, plasma, healthy volunteers, read-out: AUC0-24 Min, Max): 20700 to 91500 ng·h/mL
Cmax (192 mg, Day 7, plasma, healthy volunteers, read-out: Cmax AM): 5380 ng/mL
Cmax (192 mg, Day 7, plasma, healthy volunteers, read-out: Cmax GM): 5020 ng/mL
Cmax (192 mg, Day 7, plasma, healthy volunteers, read-out: Cmax Median): 4690 ng/mL
Cmax (192 mg, Day 7, plasma, healthy volunteers, read-out: Cmax Min, Max): 3120 to 10100 ng/mL
Tmax (192 mg, Day 7, plasma, healthy volunteers, read-out: Tmax Median): 4 h
Tmax (192 mg, Day 7, plasma, healthy volunteers, read-out: Tmax Min, Max): 4.01 to 4.08 h
Cmax (384 mg, Day 1, plasma, Healthy Subjects, Table 10, read-out: Cmax Mean): 6630 ng/mL
Tmax (384 mg, Day 1, plasma, Healthy Subjects, Table 10, read-out: Tmax median): 4 h
AUC(0-t) (384 mg, Day 1, plasma, Healthy Subjects, read-out: AUC0-24 Mean): 47600 ng·h/mL
AUC(0-t) (384 mg, Day 1, plasma, healthy volunteers, read-out: AUC0-24 AM): 47600 ng·h/mL
AUC(0-t) (384 mg, Day 1, plasma, healthy volunteers, read-out: AUC0-24 GM): 35500 ng·h/mL
AUC(0-t) (384 mg, Day 1, plasma, healthy volunteers, read-out: AUC0-24 Median): 41900 ng·h/mL
AUC(0-t) (384 mg, Day 1, plasma, healthy volunteers, read-out: AUC0-24 Min, Max): 6640 to 105000 ng·h/mL
Cmax (384 mg, Day 1, plasma, healthy volunteers, read-out: Cmax AM): 6630 ng/mL
Cmax (384 mg, Day 1, plasma, healthy volunteers, read-out: Cmax GM): 5390 ng/mL
Cmax (384 mg, Day 1, plasma, healthy volunteers, read-out: Cmax Median): 5580 ng/mL
Cmax (384 mg, Day 1, plasma, healthy volunteers, read-out: Cmax Min, Max): 1490 to 13700 ng/mL
Tmax (384 mg, Day 1, plasma, healthy volunteers, read-out: Tmax Median): 4 h
Tmax (384 mg, Day 1, plasma, healthy volunteers, read-out: Tmax Min, Max): 1.5 to 6 h
Cmax (384 mg, Day 7, plasma, Healthy Subjects, Table 10, read-out: Cmax Mean): 7850 ng/mL
Tmax (384 mg, Day 7, plasma, Healthy Subjects, Table 10, read-out: Tmax median (range)): 3.5 h
AUC(0-t) (384 mg, Day 7, plasma, Healthy Subjects, read-out: AUC0-24 Mean): 54900 ng·h/mL
AUC(0-t) (384 mg, Day 7, plasma, healthy volunteers, read-out: AUC0-24 AM): 54900 ng·h/mL
AUC(0-t) (384 mg, Day 7, plasma, healthy volunteers, read-out: AUC0-24 GM): 42100 ng·h/mL
AUC(0-t) (384 mg, Day 7, plasma, healthy volunteers, read-out: AUC0-24 Median): 50000 ng·h/mL
AUC(0-t) (384 mg, Day 7, plasma, healthy volunteers, read-out: AUC0-24 Min, Max): 11500 to 125000 ng·h/mL
Cmax (384 mg, Day 7, plasma, healthy volunteers, read-out: Cmax AM): 7880 ng/mL
Cmax (384 mg, Day 7, plasma, healthy volunteers, read-out: Cmax GM): 6650 ng/mL
Cmax (384 mg, Day 7, plasma, healthy volunteers, read-out: Cmax Median): 6500 ng/mL
Cmax (384 mg, Day 7, plasma, healthy volunteers, read-out: Cmax Min, Max): 2870 to 17900 ng/mL
Tmax (384 mg, Day 7, plasma, healthy volunteers, read-out: Tmax Median): 3.5 h
Tmax (384 mg, Day 7, plasma, healthy volunteers, read-out: Tmax Min, Max): 2.52 to 4.03 h
